Results taken from patent US20240308984A1, “Jak Inhibitor With High Oral Bioavailability” (TECHNODERMA MEDICINES INC, priority 2021, published 2024).
Like-named read-outs stand apart in the source and are kept apart here.

Test: Oral PK in rats, single oral dose, plasma concentration by LC-MS/MS
Type: in vivo, Sprague Dawley (SD) rats
Conditions: SD rats, single oral gavage 5 mg/kg, n=3; for Cmax: 1 mg/mL solution in DMA:30% Solutol HS 15:Saline 10:10:80, plasma; for AUC0-t: sampling up to 24 hours, plasma
Protocol: Biological Description of Oral PK in Rats:
In brief, the compounds were prepared in a solvent [DMA: 30% Solutol HS 15: Saline=10:10:80 (v/v/v)] to form clear solution formulations having a concentration of 1 mg/mL. Each test compound was administered to 3 rats (n=3) in single oral gavage (5 mg/kg). Approximately 150 μL of whole blood was taken from a subclavian vein of each experimental rat before administration and at 0.25, 0.5, 1, 2, 4, 8, 12, and 24 hours after administration, respectively, and was collected into an Eppendorf tube containing EDTA-K2, then 100 μL of the whole blood was added to an Eppendorf tube containing 300 μL of cyanomethane (ACN), mixed and then centrifuged to separate the plasma, and after it was ensured that there was no hemolysis in the samples, the plasma samples were stored in a freezer at −90° C. to −60° C. for analyses of drug concentrations in the samples via LC-MS/MS.
Concentrations of compounds in the plasma samples were tested and analyzed via LC-MS/MS system (API4000: LC-MS-MS-001), 10 μL of the sample was mixed with 100 μL of ACN containing a standard, then 110 μL of water was added and the mixture was oscillated, and finally, 2 μL of the mixed solution was injected into the LC-MS/MS system.

[1] = Sprague-Dawley, rat, read-out: Cmax
[2] = Sprague-Dawley, rat, read-out: AUC0-t

Cmax	AUC0-t	Cmax [1]	AUC0-t [2]	SMILES
5.02 ng/mL	30.7 ng·h/mL	–	–	CCNC(=O)c1ccc(Nc2nccc(-c3ccc(NC(=O)[C@@H]4CC4(F)F)cc3)n2)cc1C [Comparative Example 4]
–	–	791 ng/mL	1580 ng·h/mL	Cn1cc(Nc2nccc(-c3ccc(N(COC(=O)C(C)(C)C)S(=O)(=O)Cc4cccc(C#N)c4)cc3)n2)cn1 [Example 2, (41-(3-cyanophenyl)-N-(4-(2-(((1-methyl-1H-pyrazol-4-yl)amino)pyrimidin-4-yl)phenyl)methyl)sulfonamido)methyl pivalate]
16.5 ng/mL	141 ng·h/mL	–	–	CCNC(=O)c1ccc(Nc2nccc(-c3ccc(NC(=O)[C@@H]4CC4(F)F)cc3)n2)cc1 [Comparative Example 5]
–	–	116 ng/mL	891 ng·h/mL	Cn1cc(Nc2nccc(-c3ccc(NC(=O)[C@@H]4CC4(F)F)nc3)n2)cn1 [Comparative Example 1, (S)-2,2-difluoro-N-(5-(2-((1-methyl-1H-pyrazol-4-yl)amino)pyrimidin-4-yl)pyridin-2-yl)cycloprop-ane-1-carboxamide]
–	–	635 ng/mL	3090 ng·h/mL	CCNC(=O)c1ccc(Nc2nccc(-c3ccc(N(COC(=O)C(C)(C)C)C(=O)C4CC4(F)F)cc3)n2)cc1C (stereo not drawn) [Example 4]
20.2 ng/mL	47.4 ng·h/mL	–	–	Cn1cc(Nc2nccc(-c3ccc(NS(=O)(=O)Cc4cccc(C#N)c4)cc3)n2)cn1 [Comparative Example 2]
–	–	689 ng/mL	2710 ng·h/mL	CCNC(=O)c1ccc(Nc2nccc(-c3ccc(N(COC(=O)C(C)(C)C)C(=O)C4CC4(F)F)cc3)n2)cc1 (stereo not drawn) [Example 5]
–	–	1860 ng/mL	2890 ng·h/mL	Cn1cc(Nc2nccc(-c3ccc(N(COC(=O)C(C)(C)C)S(=O)(=O)Cc4cccc(F)c4)cc3)n2)cn1 [Example 3]
–	381 ng·h/mL	–	–	Cn1cc(Nc2nccc(-c3ccc(NS(=O)(=O)Cc4cccc(F)c4)cc3)n2)cn1 [Comparative Example 3]

SMILES	Cmax	AUC0-t	Cmax [1]	AUC0-t [2]
Cn1cc(Nc2nccc(-c3ccc(N(COC(=O)C(C)(C)C)C(=O)[C@@H]4CC4(F)F)nc3)n2)cn1 [Example 1, (S)-(2,2-difluoro-N-(5-(2-(((1-methyl-1H-pyrazol-4-yl)amino)pyrimidin-4-yl)pyridin-2-yl)cyclopropane-1-carboxamido)methyl pivalate]	–	1670 ng·h/mL	–	–
